According to US5488060A, “Substituted thiadiazoles, compositions containing them and their use as antimicrobial and marine antifouling agents” (The Dow Chemical Company, priority 1994, dated 1996):
Values after ≈ are worked out from the molar mass of the structure shown. Like-named read-outs stand apart in the source and are kept apart here.

Assays:
Assay type in all cases: cell-based
[1] = test system: Salmonella choleraesuis (Se); experiment: Minimum inhibitory concentration (MIC) in nutrient agar, Salmonella choleraesuis; conditions: Salmonella enterica
Protocol: (§1) The antimicrobial activity of the compounds of the present invention is set forth as the minimum inhibitory concentration (MIC) for the active compounds and is determined for nine (9) bacteria, using nutrient agar, and seven (7) yeast and fungi, using malt yeast agar. This determination is conducted using a one percent solution of the test compound prepared in a mixture of acetone and water.
(§2) Nutrient agar is prepared at pH 6.8, representing a neutral medium, and at pH 8.2, representing an alkaline medium. The nutrient agars are prepared by adding 23 g of nutrient agar to one-liter of deionized water. In addition, the alkaline medium is prepared by adjusting a 0.04M solution of N-[tris-(hydroxymethyl)methyl]glycine buffered deionized water with concentrated sodium hydroxide to a pH of 8.5.
(§3) The test tubes containing the agar are cooled in a water bath until the temperature of the agar is 48° C. Then, an appropriate amount of the one percent solution of the test compound is added (except in the controls where no compound is added) to the respective test tubes so that the final concentrations are 500, […], 100, 50, 25, 10, 5, 2.5, 1.0 and zero parts per million of the test compound in the agar, thus having a known concentration of test compound dispersed therein. The contents of the test tubes are then transferred to respective petri plates. After drying for 24 hours, the petri plates containing nutrient agar are inoculated with bacteria and those containing malt yeast agar are inoculated with yeast and fungi.
(§4) The inoculation with bacteria is accomplished by using the following procedure. Twenty-four hour-cultures of each of the bacteria are prepared by incubating the respective bacteria in tubes containing nutrient broth for 24 hours at 30° C. in a shaker. Dilutions of each of the 24 hour-cultures are made so that nine separate suspensions (one for each of the nine test bacteria) are made, each containing 10^8 colony forming units (CFU) per mL of suspension of a particular bacteria. Aliquots of 0.3 mL of each of the bacterial suspensions are used to fill the individual wells of Steer's Replicator. For each microbial suspension, 0.3 mL was used to fill three wells (i.e., three wells of 0.3 mL each) so that for the nine different bacteria, 27 wells are filled. The Steer's Replicator is then used to inoculate both the neutral and alkaline pH nutrient agar petri plates.
(§5) The inoculated petri plates are incubated at 30° C. for 48 hours and then read to determine if the test compound which is incorporated into the agar prevented growth of the respective bacteria.

[2] = test system: Enterobacter aerogenes (Ea); experiment: Minimum inhibitory concentration (MIC) in nutrient agar, Enterobacter aerogenes; conditions: Klebsiella aerogenes
Protocol: as §1, §2, §3, §4, §5

[3] = test system: Saccharomyces cerevisiae (Sc); experiment: Minimum inhibitory concentration (MIC) in malt yeast agar, Saccharomyces cerevisiae
Protocol: as §1
(§6) Malt yeast agar is prepared at pH 5.5 by adding 3 g yeast extract and 45 g malt agar per liter of deionized water. The specific agar is dispensed in 30 mL aliquots into 25×200 mm test tubes, capped and autoclaved for 15 minutes at 115° C.
as §3
(§7) The inoculation with the yeast and fungi is accomplished as follows. Cultures of yeast and fungi are incubated for seven days on malt yeast agar at 30° C. These cultures are used to prepare suspensions by the following procedure. A suspension of each organism is prepared by adding 10 mL of sterile saline and 10 microliters of octylphenoxy polyethoxy ethanol to the agar slant of yeast or fungi. The sterile saline/octylphenoxy potyethoxy ethanol solution is then agitated with a sterile swab to suspend the microorganism grown on the slant. Each resulting suspension is diluted into sterile saline (1 part suspension: 9 parts sterile saline). Aliquots of these dilutions are placed in individual wells of Steer's Replicator and petri plates inoculated as previously described. The petri plates are incubated at 30° C. and read after 48 hours for yeast and 72 hours for fungi.

[4] = test system: Pseudomonas aeruginosa (PRD-10); experiment: Minimum inhibitory concentration (MIC) in nutrient agar, Pseudomonas aeruginosa PRD-10; conditions: 48 h
Protocol: as §1, §2, §3, §4, §5

[5] = test system: Aureobasidium pullulan (Ap); experiment: Minimum inhibitory concentration (MIC) in malt yeast agar, Aureobasidium pullulan; conditions: pH 5.5, read-out: Minimum Inhibitory Concentration, Ap
Protocol: as §1, §6, §3, §7

Aspergillus niger (An) = experiment: Minimum inhibitory concentration (MIC) in malt yeast agar, Aspergillus niger; conditions: pH 5.5; malt yeast agar, 30° C., 72 hours for fungi; read-out: Minimum Inhibitory Concentration, An
Protocol: as §1, §6, §3, §7

Candida albicans (Ca) = experiment: Minimum inhibitory concentration (MIC) in malt yeast agar, Candida albicans
Protocol: as §1, §6, §3, §7

Bacillus subtilis (Bs) = experiment: Minimum inhibitory concentration (MIC) in nutrient agar, Bacillus subtilis
Protocol: as §1, §2, §3, §4, §5

[6] = test system: Pseudomonas aeruginosa (Pa); experiment: Minimum inhibitory concentration (MIC) in nutrient agar, Pseudomonas aeruginosa
Protocol: as §1, §2, §3, §4, §5

[7] = test system: Staphylococcus aureus (Sa); experiment: Minimum inhibitory concentration (MIC) in nutrient agar, Staphylococcus aureus
Protocol: as §1, §2, §3, §4, §5

[8] = test system: Klebsiella pneumoniae (Kp); experiment: Minimum inhibitory concentration (MIC) in nutrient agar, Klebsiella pneumoniae
Protocol: as §1, §2, §3, §4, §5

Proteus vulgaris (Pv) = experiment: Minimum inhibitory concentration (MIC) in nutrient agar, Proteus vulgaris
Protocol: as §1, §2, §3, §4, §5

Escherichia coli (Ec) = experiment: Minimum inhibitory concentration (MIC) in nutrient agar, Escherichia coli
Protocol: as §1, §2, §3, §4, §5

Fusarium oxysporum (Fo) = experiment: Minimum inhibitory concentration (MIC) in malt yeast agar, Fusarium oxysporum
Protocol: as §1, §6, §3, §7

[9] = test system: Penicillium chrysogenum (Pc); experiment: Minimum inhibitory concentration (MIC) in malt yeast agar, Penicillium chrysogenum; conditions: pH 5.5; malt yeast agar, 30° C., 72 hours for fungi; read-out: Minimum Inhibitory Concentration, PC
Protocol: as §1, §6, §3, §7

Trichoderma viride (Tv) = experiment: Minimum inhibitory concentration (MIC) in malt yeast agar, Trichoderma viride; conditions: pH 5.5; malt yeast agar, 30° C., 72 hours for fungi; read-out: Minimum Inhibitory Concentration, Tv
Protocol: as §1, §6, §3, §7

[10] = 48 h, pH 8.2, read-out: Minimum Inhibitory Concentration, SC
[11] = pH 6.8, nutrient agar, 30° C., 48 hours, read-out: Minimum Inhibitory Concentration, SC
[12] = 48 h, pH 8.2, read-out: Minimum Inhibitory Concentration, Ea
[13] = pH 6.8, read-out: Minimum Inhibitory Concentration, PRD
[14] = pH 8.2, read-out: Minimum Inhibitory Concentration, PRD
[15] = pH 6.8, nutrient agar, 30° C., 48 hours, read-out: Minimum Inhibitory Concentration, Bs
[16] = pH 8.2, nutrient agar, 30° C., 48 hours, read-out: Minimum Inhibitory Concentration, Bs
[17] = pH 6.8, nutrient agar, 30° C., 48 hours, read-out: Minimum Inhibitory Concentration, Pa
[18] = 48 h, pH 8.2, read-out: Minimum Inhibitory Concentration, Kp
[19] = pH 6.8, nutrient agar, 30° C., 48 hours, read-out: Minimum Inhibitory Concentration, Kp
[20] = 48 h, pH 8.2, read-out: Minimum Inhibitory Concentration, Pv
[21] = 48 h, pH 8.2, read-out: Minimum Inhibitory Concentration, Ec
[22] = 48 h, pH 6.8, read-out: Minimum Inhibitory Concentration, Ea
[23] = 48 h, pH 5.5, read-out: Minimum Inhibitory Concentration, SC
[24] = pH 5.5, malt yeast agar, 30° C., 48 hours for yeast, read-out: Minimum Inhibitory Concentration, Ca
[25] = pH 8.2, nutrient agar, 30° C., 48 hours, read-out: Minimum Inhibitory Concentration, Pa
[26] = pH 6.8, nutrient agar, 30° C., 48 hours, read-out: Minimum Inhibitory Concentration, Sa
[27] = 48 h, pH 6.8, read-out: Minimum Inhibitory Concentration, Pv
[28] = 48 h, pH 6.8, read-out: Minimum Inhibitory Concentration, Ec

Structure (SMILES)	MIC [1, 10] [µg/mL]	MIC [1, 11] [µg/mL]	MIC [2, 12] [µg/mL]	MIC [4, 13] [µg/mL]	MIC [4, 14] [µg/mL]	MIC [5] [µg/mL]	MIC (Aspergillus niger (An)) [µg/mL]	MIC (Bacillus subtilis (Bs); [15]) [µg/mL]	MIC (Bacillus subtilis (Bs); [16]) [µg/mL]	MIC [6, 17] [µg/mL]	MIC [8, 18] [µg/mL]	MIC [8, 19] [µg/mL]	MIC (Proteus vulgaris (Pv); [20]) [µg/mL]	MIC (Escherichia coli (Ec); [21]) [µg/mL]	MIC [2, 22] [µg/mL]	MIC [3, 23] [µg/mL]	MIC (Candida albicans (Ca); [24]) [µg/mL]	MIC [6, 25] [µg/mL]	MIC [7, 26] [µg/mL]	MIC (Proteus vulgaris (Pv); [27]) [µg/mL]	also measured
N#CSc1nsnc1-c1cccnc1 [Example XV, 4-(3-Pyridyl)-3-thiocyanato-1,2,5-thiadiazole]	500 (≈ 2270 µM)	250 (≈ 1130 µM)	500 (≈ 2270 µM)	500 (≈ 2270 µM)	500 (≈ 2270 µM)	50 (≈ 227 µM)	100 (≈ 454 µM)	25 (≈ 113 µM)	100 (≈ 454 µM)	500 (≈ 2270 µM)	500 (≈ 2270 µM)	100 (≈ 454 µM)	500 (≈ 2270 µM)	500 (≈ 2270 µM)	–	–	–	–	–	–	MIC ([2]; pH 6.8, nutrient agar, 30° C., 48 hours, read-out: Minimum Inhibitory Concentration, Ea): 250 µg/mL (≈ 1130 µM); MIC ([3]; pH 5.5, malt yeast agar, 30° C., 48 hours for yeast, read-out: Minimum Inhibitory Concentration, SC): 50 µg/mL (≈ 227 µM); MIC (Candida albicans (Ca); 48 h, pH 5.5, read-out: Minimum Inhibitory Concentration, Ca): 100 µg/mL (≈ 454 µM); MIC ([6]; 48 h, pH 8.2, read-out: Minimum Inhibitory Concentration, Pa): 500 µg/mL (≈ 2270 µM); MIC ([7]; 48 h, pH 6.8, read-out: Minimum Inhibitory Concentration, Sa): 50 µg/mL (≈ 227 µM); MIC (Proteus vulgaris (Pv); pH 6.8, nutrient agar, 30° C., 48 hours, read-out: Minimum Inhibitory Concentration, Pv): 100 µg/mL (≈ 454 µM); MIC (Escherichia coli (Ec); pH 6.8, nutrient agar, 30° C., 48 hours, read-out: Minimum Inhibitory Concentration, Ec): 250 µg/mL (≈ 1130 µM); MIC (Fusarium oxysporum (Fo); 72 h, pH 5.5, read-out: Minimum Inhibitory Concentration, Fo): 50 µg/mL (≈ 227 µM)
N#CSc1nsnc1-c1ccc(C(F)(F)F)cc1 [Example X, 4-(4-Trifluoromethylphenyl)-3-thiocyanato-1,2,5-thiadiazole]	500 (≈ 1740 µM)	–	500 (≈ 1740 µM)	> 500	500 (≈ 1740 µM)	2.5 (≈ 8.7 µM)	5 (≈ 17.4 µM)	25 (≈ 87 µM)	–	–	500 (≈ 1740 µM)	> 500	500 (≈ 1740 µM)	500 (≈ 1740 µM)	> 500	2.5 (≈ 8.7 µM)	5 (≈ 17.4 µM)	500 (≈ 1740 µM)	> 500	> 500	MIC ([1]; 48 h, pH 6.8, read-out: Minimum Inhibitory Concentration, SC): > 500 µg/mL; MIC (Bacillus subtilis (Bs); 48 h, pH 8.2, read-out: Minimum Inhibitory Concentration, Bs): 500 µg/mL (≈ 1740 µM); MIC ([6]; 48 h, pH 6.8, read-out: Minimum Inhibitory Concentration, Pa): > 50 µg/mL; MIC ([7]; 48 h, pH 8.2, read-out: Minimum Inhibitory Concentration, Sa): 500 µg/mL (≈ 1740 µM); MIC [9]: 5 µg/mL (≈ 17.4 µM); MIC (Escherichia coli (Ec); [28]): > 500 µg/mL; MIC (Trichoderma viride (Tv)): 2.5 µg/mL (≈ 8.7 µM)
N#CSc1nsnc1-c1cccc(Cl)c1 [Example III, 4-(3-Chlorophenyl)-3-thiocyanato-l,2,5-thiadiazole]	500 (≈ 1970 µM)	50 (≈ 197 µM)	> 500	> 500	500 (≈ 1970 µM)	2.5 (≈ 9.85 µM)	5 (≈ 19.7 µM)	25 (≈ 98.5 µM)	100 (≈ 394 µM)	> 500	500 (≈ 1970 µM)	–	500 (≈ 1970 µM)	500 (≈ 1970 µM)	> 500	2.5 (≈ 9.85 µM)	5 (≈ 19.7 µM)	500 (≈ 1970 µM)	25 (≈ 98.5 µM)	> 500	MIC ([7]; pH 8.2, nutrient agar, 30° C., 48 hours, read-out: Minimum Inhibitory Concentration, Sa): 250 µg/mL (≈ 985 µM); MIC ([8]; 48 h, pH 6.8, read-out: Minimum Inhibitory Concentration, Kp): 50 µg/mL (≈ 197 µM); MIC (Escherichia coli (Ec); [28]): 50 µg/mL (≈ 197 µM); MIC (Trichoderma viride (Tv)): 2.5 µg/mL (≈ 9.85 µM); MIC (Fusarium oxysporum (Fo); pH 5.5, malt yeast agar, 30° C., 72 hours for fungi, read-out: Minimum Inhibitory Concentration, Fo): 2.5 µg/mL (≈ 9.85 µM)
